Assay results reported in US9492382B2, “Hyperbranched polyester having a hydrophobic core for solubilizing active ingredients of low solubility” (BASF SE, priority 2009, dated 2016).

Experiment: physchem
Conditions: pH 7, aqueous buffer, thermodynamic from solid
Description: 2 g of polymer were weighed out into a 50 ml glass beaker. Then 0.2 g of each active ingredient was weighed out into the batch to give a supersaturated solution. […] The mixture was then stirred at room temperature for 72 hours, using a magnetic stirrer. After a rest time of one hour, excess (i.e., unsolubilized) active ingredient was removed by filtration. The resulting clear or opaque solution was then analyzed for its active ingredient content by means of UV spectroscopy or HPLC.
The results are compiled in tables 2 and 3.

For Clc1ccccc1C(c1ccccc1)(c1ccccc1)n1ccnc1 [Clotrimazole], the solubility at 72 h was < 100 µg/mL.
